Measured values from publication PMC7559897, “Designed Antimicrobial Peptides Against Trauma-Related Cutaneous Invasive Fungal Wound Infections” (Journal of Fungi, 2020).
In brackets after ≈: the same amount, converted by molar mass. Bridge positions count the residues as written; N and C are the ends. Square brackets hold non-standard residues; d marks the D form. Peptide text beside a SMILES is read from it. Orn = NCCC[C@H](N)C(=O)O

Experiments:
K. pneumonia 6069 = assay type: cell-based, Klebsiella pneumoniae; details: 24 h
Procedure: (§1) Assays were performed by Trideum Biosciences (Frederick, MD, USA). Isolates were thawed from −80 °C storage and sub-cultured on trypticase soy agar plates at 37 °C prior to experimentation. A single colony was aseptically picked from the agar plate and released in 30 mL trypticase soy broth and incubated overnight at 37 °C incubator. Following which the bacterial culture was diluted to approximately 10^6 colony forming units (CFU)/mL using 2X cation adjusted Mueller–Hinton broth and added to the dAMP solutions (0, 2, 4, 8, 16, 32, 64, and 128 μg/mL) which had been formulated in water at 256 μg/mL and then serially diluted in media on 96-well pates. For fungal evaluation, potato dextrose broth and potato dextrose agar plates were used. The treated cultures were then incubated for 24 h at 37 °C and pathogen growth was measured by absorbance at 600 nm. Four replicas were included for each dAMP concentration. Each MIC was assigned to the lowest test agent concentration resulting in at least three out of four wells showing no growth based on an optical density (OD) reading of <0.1.

K. pneumonia ATCC 10031 = assay type: cell-based, Klebsiella pneumoniae; details: ATCC 10031, 24 h
Procedure: as §1

MRSA 6313 = assay type: cell-based, Staphylococcus aureus; details: 6313, 24 h
Procedure: as §1

S. aureus 6061 = assay type: cell-based, Staphylococcus aureus; details: 6061, 24 h
Procedure: as §1

S. aureus B-767 = assay type: cell-based, Staphylococcus aureus; details: B-767, 24 h
Procedure: as §1

MRSA 6381 = assay type: cell-based, Staphylococcus aureus; details: 6381, 24 h
Procedure: as §1

MRSA ATCC 33592 = assay type: cell-based, Staphylococcus aureus; details: ATCC 33592, 24 h
Procedure: as §1

[1] = test system: vulvovaginal candidiasis infection; details: rodent vulvovaginal candidiasis, after three days of daily treatment; cited from earlier work
Description: The dAMPs RP504, RP554 and RP557 were thus tested for their ability to treat a rodent vulvovaginal candidiasis infection. […] A daily dose with a 2% concentration lowered the CFU/sample by more than 4 logs compared to the con ...

[2] = test system: S. aureus 49525 (Xen36 luciferase); assay type: cell-based, Staphylococcus aureus; details: 8 μg/mL, 60 min incubation, bioluminescence, triplicates from two independent experiments
Description: (§2) Fungal and bacterial strains were obtained from American Type Culture Collection (ATCC, Manassas, VA, USA) or the clinical isolate collection at Trideum Biosciences (Frederick, MD, USA) and are presented in Table 1 and Table 2, respectively. Bioluminescence strains of P. aeruginosa 19660, transfected with the Xen5 luciferase gene, and S. aureus ATCC R 49525TM (Wright), transfected with the Xen36 luciferase gene, were obtained from Perkin Elmer (Waltham, MA, USA).
(§3) Real-time killing of bacterial cells, P. aeruginosa or S. aureus, and mammalian cytotoxicity to assess dAMP off-target toxicity was evaluated using bioluminescent cells. The L929 fibroblast cells (ATCC, Manassas, VA, USA) were made bioluminescent by transfection with a luciferase gene. Cells (1 × 10^4 cells, 100 μL) were plated in 96-well black-walled plates and the candidate dAMPs were 2-fold serially diluted from specified concentrations in growth medium supplemented with 150 μg/mL D-luciferin. Each concentration was performed in triplicate, with the final volume being 200 μL. Imaging was performed at select times after the addition of the dAMP, and compared to concurrently run vehicle-control, using an IVIS Lumina imaging system (Caliper Life Sciences, Inc., Hopkinton, MA, USA). For imaging, the 96-well plate was positioned on the stage (12.5-cm field of view), with an open emission filter, binning of 4, and f-stop 1 and a 1-min exposure time. Monitoring bioluminescence allows assessment of the kinetics of cellular viability as there is a tight correlation between the bioluminescent signal and cell viability. Data analysis was performed using the Living Image software program (version 4.3, Caliper Life Sciences, Inc., Hopkinton, MA, USA).
(§4) Figure 3 RP553, RP556, RP557 rapidly destroy P. aeruginosa and S. aureus. The bioluminescence of viable P. aeruginosa 19,660 and S. aureus 49,525 cells was quantitated in real time with an IVIS Lumina bioimaging system. Data represent the mean ± SE of triplicate replicates from two independent experiments. For some points, the error bars are shorter than the height of the symbols.

P. aeruginosa ATCC 27853 = assay type: cell-based, Pseudomonas aeruginosa; details: ATCC 27853, 24 h
Procedure: as §1

P. aeruginosa 6186 = assay type: cell-based, Pseudomonas aeruginosa; details: 6186, 24 h
Procedure: as §1

P. aeruginosa ATCC 19660 = assay type: cell-based, Pseudomonas aeruginosa; details: ATCC 19660, 24 h
Procedure: as §1

[3] = test system: P. aeruginosa 19660 (Xen5 luciferase); test: Bioluminescent time-kill assay; assay type: cell-based, Pseudomonas aeruginosa; details: 8 μg/mL, 60 min, bioluminescence, triplicates from two independent experiments
Description: as §2, §3, §4

A. baumannii 6838 = assay type: cell-based, Acinetobacter baumannii; details: 6838, 24 h
Procedure: as §1

A. baumannii ATCC 17978 = assay type: cell-based, Acinetobacter baumannii; details: ATCC 17978, 24 h
Procedure: as §1

A. baumannii 6043 = assay type: cell-based, Acinetobacter baumannii; details: 6043, 24 h
Procedure: as §1

E. cloacae 6053 = assay type: cell-based; details: 6053, 24 h
Procedure: as §1

Candida krusei Y-27825 = assay type: cell-based; details: Y-27825, 24 h
Procedure: as §1

[4] = test system: Fusarium solani NRRL 28548; assay type: cell-based; details: NRRL 28548, 24 h
Procedure: as §1

Candida albicans Y-6359 = assay type: cell-based; details: Y-6359, 24 h
Procedure: as §1

[5] = test system: Candida parapsilosis Y-1761; assay type: cell-based; details: Y-1761, 24 h
Procedure: as §1

[6] = test system: Candida parapsilosis Y-1763; assay type: cell-based; details: Y-1763, 24 h
Procedure: as §1

[7] = test system: Aspergillus flavus MYA-3651; assay type: cell-based; details: 24 h
Procedure: as §1

[8] = test system: Mucor circinelloides NRRL 3631; assay type: cell-based; details: NRRL 3631, 24 h
Procedure: as §1

[9] = test system: Absidia corymbifera NRRL 6251; assay type: cell-based; details: NRRL 6251, 24 h
Procedure: as §1

Candida albicans Y-326 = assay type: cell-based; details: Y-326, 24 h
Procedure: as §1

E. cloacae 6054 = assay type: cell-based; details: 6054, 24 h
Procedure: as §1

[10] = test system: Aspergillus fumigatus 9651; assay type: cell-based; details: 9651, 24 h
Procedure: as §1

S. epidermis ATCC 51625 = assay type: cell-based; details: ATCC 51625, 24 h
Procedure: as §1

[11] = test system: Aspergillus fumigatus 9648; assay type: cell-based; details: 9648, 24 h
Procedure: as §1

Candida krusei Y-27803 = assay type: cell-based; details: Y-27803, 24 h
Procedure: as §1

[12] = test system: Aspergillus flavus MYA-1004; assay type: cell-based; details: 24 h
Procedure: as §1

With `CC[C@H](C)[C@H](NC(=O)CNC(=O)CNC(=O)[C@@H]1CSSC[C@H](NC(=O)CNC(=O)CNC(=O)[C@H](CC(C)C)NC(=O)[C@H](CCCN)NC(=O)[C@H](C)NC(=O)[C@H](CCCN)NC(=O)[C@@H](NC(=O)[C@H](CCCN)NC(=O)[C@@H](N)Cc2ccccc2)[C@@H](C)CC)C(=O)N[C@@H](CC(C)C)C(=O)NCC(=O)N[C@@H](CCCN)C(=O)N[C@@H](Cc2ccccc2)C(=O)N1)C(=O)N[C@@H](CCCN)C(=O)N[C@@H](C)C(=O)N[C@@H](CCCN)C(=O)N[C@@H](CC(C)C)C(=O)N[C@@H](C)C(=O)N[C@@H](Cc1ccccc1)C(N)=O` [RP504] (H-F[Orn]I[Orn]A[Orn]LGGCLG[Orn]FCGGI[Orn]A[Orn]LAF-NH2; disulfide 10-15) the “MIC against K. pneumonia 6069” value (K. pneumonia 6069) was 32 µg/mL (≈ 13.3 µM), the “MIC against K. pneumonia ATCC 10031” value (K. pneumonia ATCC 10031) was 32 µg/mL (≈ 13.3 µM) and the “MIC against MRSA 6313” value (MRSA 6313) was 64 µg/mL (≈ 26.5 µM). The “MIC against S. aureus 6061” value (S. aureus 6061) was 64 µg/mL (≈ 26.5 µM), the “MIC against S. aureus B-767” value (S. aureus B-767) was 32 µg/mL (≈ 13.3 µM) and the “MIC against MRSA 6381” value (MRSA 6381) was 64 µg/mL (≈ 26.5 µM). For the same molecule, the “MIC against MRSA ATCC 33592” value (MRSA ATCC 33592) was 32 µg/mL (≈ 13.3 µM), the “reduction of CFU/tissue sample” value [1] was ≥ 2.5 logs and the S. aureus killing [2] was 13%. The “MIC against P. aeruginosa ATCC 27853” value (P. aeruginosa ATCC 27853) was 16 µg/mL (≈ 6.63 µM), the “MIC against P. aeruginosa 6186” value (P. aeruginosa 6186) was 16 µg/mL (≈ 6.63 µM) and the “MIC against P. aeruginosa ATCC 19660” value (P. aeruginosa ATCC 19660) was 16 µg/mL (≈ 6.63 µM). The P. aeruginosa destroyed [3] was 25%, the “MIC against A. baumannii 6838” value (A. baumannii 6838) was 64 µg/mL (≈ 26.5 µM) and the “MIC against A. baumannii ATCC 17978” value (A. baumannii ATCC 17978) was 32 µg/mL (≈ 13.3 µM). For the same molecule, the “MIC against A. baumannii 6043” value (A. baumannii 6043) was 32 µg/mL (≈ 13.3 µM), the “MIC against E. cloacae 6053” value (E. cloacae 6053) was 32 µg/mL (≈ 13.3 µM) and the “MIC against Candida krusei Y-27825” value (Candida krusei Y-27825) was 8 µg/mL (≈ 3.32 µM). The “MIC against Fusarium solani NRRL 28548” value [4] was 2 µg/mL (≈ 0.829 µM), the “MIC against Candida albicans Y-6359” value (Candida albicans Y-6359) was 4 µg/mL (≈ 1.66 µM) and the “MIC against Candida parapsilosis Y-1761” value [5] was 8 µg/mL (≈ 3.32 µM). The “MIC against Candida parapsilosis Y-1763” value [6] was 2 µg/mL (≈ 0.829 µM), the “MIC against Aspergillus flavus MYA-3651” value [7] was >128 µg/mL and the “MIC against Mucor circinelloides NRRL 3631” value [8] was >128 µg/mL. For the same molecule, the “MIC against Absidia corymbifera NRRL 6251” value [9] was 8 µg/mL (≈ 3.32 µM), the “MIC against Candida albicans Y-326” value (Candida albicans Y-326) was 8 µg/mL (≈ 3.32 µM) and the “MIC against E. cloacae 6054” value (E. cloacae 6054) was 64 µg/mL (≈ 26.5 µM). For the same molecule, the “MIC against Aspergillus fumigatus 9651” value [10] was >128 µg/mL, the “MIC against S. epidermis ATCC 51625” value (S. epidermis ATCC 51625) was 16 µg/mL (≈ 6.63 µM) and the “MIC against Aspergillus fumigatus 9648” value [11] was >128 µg/mL. For the same molecule, the “MIC against Candida krusei Y-27803” value (Candida krusei Y-27803) was 8 µg/mL (≈ 3.32 µM) and the “MIC against Aspergillus flavus MYA-1004” value [12] was >128 µg/mL.
